Measurements published in US20100267561A1, “HERBICIDAL PYRIDAZINONE DERIVATIVES” (priority 2007, published 2010).
Read-outs that look alike come from different tables or passages of the source.

How the values were obtained:
Test in all cases: Test B pre-/postemergence plant response
Format in all cases: in vivo
[1] = tested on: green foxtail (Setaria viridis); settings: Setaria viridis, read-out: Plant response rating, Foxtail, Green; for pest or weed control at 31 g/ha: 31 g ai/ha, 100 complete control; for pest or weed control at 62 g/ha: 62 g ai/ha; for pest or weed control at 62 g/ha / pest or weed control at 125 g/ha / pest or weed control at 250 g/ha: scale 0 to 100; for pest or weed control at 125 g/ha: 125 g ai/ha; for pest or weed control at 250 g/ha: 250 g ai/ha
In short: (§1)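 Preemergence and postemergence (plants 2-18 cm, 1- to 4-leaf stage) applications used test chemicals in a non-phytotoxic solvent with surfactant. Plants were held in a greenhouse 13 to 15 days, then rated visually against controls on a 0-100 scale (0 no effect, 100 complete control).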

[2] = tested on: yellow nutsedge (Cyperus esculentus); settings: Cyperus, read-out: Plant response rating, Nutsedge, Yellow; for pest or weed control at 31 g/ha: 31 g ai/ha, 100 complete control; for pest or weed control at 62 g/ha: 62 g ai/ha; for pest or weed control at 250 g/ha: 250 g ai/ha
In short: as §1

[3] = tested on: wheat (Triticum aestivum); settings: Triticum aestivum, read-out: Plant response rating, Wheat; for plant injury at 31 g/ha: 31 g ai/ha, 100 complete control; for plant injury at 62 g/ha: 62 g ai/ha; for plant injury at 62 g/ha / plant injury at 125 g/ha / plant injury at 250 g/ha: scale 0 to 100; for plant injury at 125 g/ha: 125 g ai/ha; for plant injury at 250 g/ha: 250 g ai/ha
In short: as §1

[4] = tested on: lambsquarters (Chenopodium album); settings: Chenopodium album, read-out: Plant response rating, Lambsquarters; for pest or weed control at 31 g/ha: 31 g ai/ha, 100 complete control; for pest or weed control at 62 g/ha: 62 g ai/ha; for pest or weed control at 62 g/ha / pest or weed control at 125 g/ha / pest or weed control at 250 g/ha: scale 0 to 100; for pest or weed control at 125 g/ha: 125 g ai/ha; for pest or weed control at 250 g/ha: 250 g ai/ha
In short: as §1

[5] = tested on: giant foxtail (Setaria faberii); settings: Setaria faberi, read-out: Plant response rating, Foxtail, Giant; for pest or weed control at 31 g/ha: 31 g ai/ha, 100 complete control; for pest or weed control at 62 g/ha: 62 g ai/ha; for pest or weed control at 62 g/ha / pest or weed control at 125 g/ha / pest or weed control at 250 g/ha: scale 0 to 100; for pest or weed control at 125 g/ha: 125 g ai/ha; for pest or weed control at 250 g/ha: 250 g ai/ha
In short: as §1

[6] = tested on: soybean (Glycine max); settings: Glycine max, read-out: Plant response rating, Soybean; for plant injury at 31 g/ha: 31 g ai/ha, 100 complete control; for plant injury at 250 g/ha: 250 g ai/ha
In short: as §1

[7] = tested on: woolly cupgrass (Eriochloa villosa); settings: Eriochloa villosa, post-emergence, Postemergence, read-out: Plant response rating, Cupgrass, Woolly
In short: as §1

[8] = post-emergence, Postemergence, scale 0 to 100, 0 no effect
[9] = pre-emergence, Preemergence, 0 to 100 scale, 0 no effect
[10] = post-emergence, Postemergence, scale 0 to 100
[11] = post-emergence, Postemergence, 125 g ai/ha, scale 0 to 100
[12] = pre-emergence, Preemergence, scale 0 to 100

Work on Cc1cc(-c2ccc(C(F)(F)F)cc2)nn1-c1c(O)cnn(C)c1=O [Compound 1, 5-hydroxy-2-methyl-4-[5-methyl-3-[4-(trifluoromethyl)phenyl]-1H-pyrazol-1-yl]-3(2H)-pyridazinone] yielded a pest or weed control at 31 g/ha [1, 8] of 95%, a pest or weed control at 62 g/ha ([1]; post-emergence, Postemergence) of 100% and a pest or weed control at 125 g/ha ([1]; post-emergence, Postemergence) of 100%. It also gave a pest or weed control at 250 g/ha ([1]; post-emergence, Postemergence) of 100%, a pest or weed control at 31 g/ha [1, 9] of 100% and a pest or weed control at 62 g/ha ([1]; pre-emergence, Preemergence) of 100%. For the same compound, the pest or weed control at 125 g/ha ([1]; pre-emergence, Preemergence) was 100%, the pest or weed control at 250 g/ha ([1]; pre-emergence, Preemergence) was 100% and the pest or weed control at 31 g/ha [2, 8] was 0%. For the same compound, the pest or weed control at 62 g/ha [2, 10] was 0%, the pest or weed control at 125 g/ha [2, 11] was 0% and the pest or weed control at 250 g/ha [2, 10] was 0%. For the same compound, the pest or weed control at 31 g/ha [2, 9] was 0%, the pest or weed control at 62 g/ha [2, 12] was 0% and the pest or weed control at 250 g/ha [2, 12] was 0%. It also gave a plant injury at 31 g/ha [3, 8] of 45%, a plant injury at 62 g/ha ([3]; post-emergence, Postemergence) of 90% and a plant injury at 125 g/ha ([3]; post-emergence, Postemergence) of 90%. For the same compound, the plant injury at 250 g/ha ([3]; post-emergence, Postemergence) was 95%, the plant injury at 31 g/ha [3, 9] was 35% and the plant injury at 62 g/ha ([3]; pre-emergence, Preemergence) was 45%. The plant injury at 125 g/ha ([3]; pre-emergence, Preemergence) was 90%, the plant injury at 250 g/ha ([3]; pre-emergence, Preemergence) was 95% and the pest or weed control at 31 g/ha [4, 8] was 0%. The pest or weed control at 62 g/ha ([4]; post-emergence, Postemergence) was 0%, the pest or weed control at 125 g/ha ([4]; post-emergence, Postemergence) was 40% and the pest or weed control at 250 g/ha ([4]; post-emergence, Postemergence) was 50%. For the same compound, the pest or weed control at 31 g/ha [4, 9] was 0%, the pest or weed control at 62 g/ha ([4]; pre-emergence, Preemergence) was 0% and the pest or weed control at 125 g/ha ([4]; pre-emergence, Preemergence) was 0%. For the same compound, the pest or weed control at 250 g/ha ([4]; pre-emergence, Preemergence) was 0%, the pest or weed control at 31 g/ha [5, 8] was 100% and the pest or weed control at 62 g/ha ([5]; post-emergence, Postemergence) was 100%. For the same compound, the pest or weed control at 125 g/ha ([5]; post-emergence, Postemergence) was 100%, the pest or weed control at 250 g/ha ([5]; post-emergence, Postemergence) was 100% and the pest or weed control at 31 g/ha [5, 9] was 100%. The pest or weed control at 62 g/ha ([5]; pre-emergence, Preemergence) was 100%, the pest or weed control at 125 g/ha ([5]; pre-emergence, Preemergence) was 100% and the pest or weed control at 250 g/ha ([5]; pre-emergence, Preemergence) was 100%. It also gave a plant injury at 31 g/ha [6, 8] of 0%, a plant injury at 62 g/ha ([6]; post-emergence, Postemergence, 62 g ai/ha, scale 0 to 100) of 25% and a plant injury at 125 g/ha [6, 11] of 50%. It also gave a plant injury at 250 g/ha [6, 10] of 60%, a plant injury at 31 g/ha [6, 9] of 0% and a plant injury at 250 g/ha [6, 12] of 0%. The pest or weed control at 31 g/ha ([7]; 31 g ai/ha, scale 0 to 100, 0 no effect, 100 complete control) was 95%, the pest or weed control at 62 g/ha ([7]; 62 g ai/ha, scale 0 to 100) was 100% and the pest or weed control at 125 g/ha ([7]; 125 g ai/ha, scale 0 to 100) was 100%. It also gave a pest or weed control at 250 g/ha ([7]; 250 g ai/ha, scale 0 to 100) of 100%.
